From US8084003B2, “Ozone detecting device” (Nippon Telegraph and Telephone Corporation, priority 2006, dated 2011)
Like-named read-outs stand apart in the source and are kept apart here.

Tests used:
[1] = Deposition of the ultraviolet absorber as powder on the surface of the detecting device; assay type: physicochemical; conditions: absorber solution in 50 ml acetone or water, device manufactured and dried
[2] = 25° C.
[3] = Ultraviolet absorbing ability dissolved in a solvent (spectrum of transmitted light); assay type: physicochemical
Protocol: For example, when equal amounts of 2-hydroxy-4-methoxybenzophenone-5-sulfonic acid trihydrate and 4-dodecyloxy-2-hydroxybenzophenone are added, the ultraviolet absorbing ability of 4-dodecyloxy-2-hydroxybenzophenone is 1.25 times that of 2-hydroxy-4-methoxybenzophenone-5-sulfonic acid trihydrate on the average in a wavelength region of 300 to 400 nm.
Although the addition amount of 2-hydroxy-4-methoxybenzophenone-5-sulfonic acid trihydrate is 0.8 g and that of 4-dodecyloxy-2-hydroxybenzophenone is 0.5 g, i.e., there is a difference between the addition amounts, it is impossible to explain why the large difference is produced between the changes in absorbance by ultraviolet radiation when they are applied to ozone detecting devices. Note that the ultraviolet absorbing ability of an ultraviolet absorber is proportional to the addition amount. When dissolved in a solvent, therefore, the absorbing ability of 0.8 g of 2-hydroxy-4-methoxybenzophenone-5-sulfonic acid trihydrate is about 1.3 times that of 0.5 g of 4-dodecyloxy-2-hydroxybenzophenone.

[4] = Ultraviolet exposure test with Artificial Sunlight XC-100AF (no UV filter), reflected-light absorbance at about 618 nm; assay type: physicochemical; conditions: dye used instead of indigo carmine, with ultraviolet absorber
Protocol: An ultraviolet exposure test (experiment) in which the ozone detecting devices A to G described above are irradiated with ultraviolet light is conducted. In this test, the influence of ultraviolet light was evaluated by using Artificial Sunlight XC-100AF available from SERIC with no UV filter attached. The incident angle of illuminating light to each of ozone detecting devices A to G was set at 20°, the distance from the lower end of the artificial sunlight to each of ozone detecting devices A to G was set at 110 cm, and each of ozone detecting devices A to G was set in a central portion where the intensity of the illuminating light is highest.
Each of ozone detecting devices A to G described above was irradiated with ultraviolet light minute by minute for 1 to 5 min, and the reflected light from the ozone detecting device was measured with a spectrophotometer whenever the device was irradiated. The influence of ultraviolet light was evaluated by using the change in absorbance at a wavelength of about 618 nm as an index.

[5] = other water-soluble ultraviolet absorbers, temperature not given; cited from earlier work

Compound | deposition in the form of powder on the surface of the device [1] | resistance to ultraviolet light with other dyes [4] | other results
CC(C)(C)c1ccc(O)c(-n2nc3ccccc3n2)c1 [2-(2-hydroxy-5-t-butylphenyl)-2H-benzotriazole] | deposits in the form of powder |  | 
CCC(C)(C)c1cc(-n2nc3ccccc3n2)c(O)c(C(C)(C)CC)c1 [2-(3,5-di-t-pentyl-2-hydroxyphenyl)-2H-benzotriazole] | deposits in the form of powder |  | 
COc1cc(O)c(C(=O)c2ccccc2)cc1S(=O)(=O)[O-].[Na+] [2-hydroxy-4-methoxybenzophenone-5-sodium sulfonate] | none of these ultraviolet absorbers deposited in the form of powder |  | water solubility [2]: more than 2.5 wt %
COc1cc(O)c(C(=O)c2ccccc2)cc1S(=O)(=O)O.O.O.O [2-hydroxy-4-methoxybenzophenone-5-sulfonic acid trihydrate] | none of these ultraviolet absorbers deposited in the form of powder |  | absorbing ability of 0.8 g relative to 0.5 g of 4-dodecyloxy-2-hydroxybenzophenone ([3]; dissolved in a solvent, scaled by addition amount): about 1.3 times; water solubility [2]: 25 wt %
CCCCCCCCCCCCOc1ccc(C(=O)c2ccccc2)c(O)c1 [4-dodecyloxy-2-hydroxybenzophenone, reference compound] | deposits in the form of powder |  | ultraviolet absorbing ability relative to 2-hydroxy-4-methoxybenzophenone-5-sulfonic acid trihydrate ([3]; equal amounts added, average in wavelength region 300 to 400 nm): 1.25 times
O=S(=O)([O-])c1ccc(O)c(N=Nc2c(O)ccc3ccccc23)c1.[Na+] [Acid Alizarin Violet N] |  | possible to increase the resistance to ultraviolet light | 
O=C1c2ccccc2C(=O)c2c1ccc(O)c2O [alizarin] |  | possible to increase the resistance to ultraviolet light | 
O=C(/C=C/c1ccccc1)c1ccccc1 [chalcone] |  | possible to increase the resistance to ultraviolet light | 
Nc1ccc(C(=O)O)cc1 [p-aminobenzoic acid] |  |  | water solubility [5]: 0.4 wt %
O=C(Oc1ccccc1)c1ccccc1O [phenyl salicylate] |  |  | water solubility [5]: 0.05 wt %
